Results taken from US12590118B2, “Salt and crystal form of steroid derivative regulator” (Shanghai Hansoh Biomedical Co., Ltd., priority 2019, dated 2026).
In brackets after ≈: the same amount, converted by molar mass.

Experiments:
Assay type in all cases: physicochemical
[1] = Competitive experiment of different crystal forms of the free base; conditions: 40° C.
Description: The stability among crystal forms I, II and III of the free base of Example 40 was investigated, so as to select the stable crystal form.
Multiple portions of about 20 mg of crystal forms I, II and III of the free base of Example 40 were accurately weighed, and mixed in pairs in equal amounts. Methyl tert-butyl ether and n-heptane were added respectively, and the resulting mixture was stirred at 40° C. for 7 days. The mixture was centrifuged at high speed, the supernatant was removed, and the resulting solid precipitate was vacuum dried in an oven at 40° C. and characterized by XRPD.

[2] = Solubility experiment (thermodynamic solubility at 37° C.); conditions: 24 hours
Description: The solubility of the free base and salt of the compound in water, Fasted State Simulated Gastric Fluid (FaSGF), Fasted State Simulated Intestinal Fluid (FaSSIF) and Fed State Simulated Intestinal Fluid (FeSSIF) was compared, so as to provide a basis for evaluating the druggability of the crystal form and salt.
About 2 to 3 mg of crystal forms I, II and III of the free base of Example 40 were weighed, suspended in 1 mL of Fasted State Simulated Gastric Fluid (FaSSGF), Fasted State Simulated Intestinal Fluid (FaSSIF), Fed State Simulated Intestinal Fluid (FeSSIF) and pure water respectively, and shaked for 24 hours. Thermodynamic solubility of the compound at 37° C. was determined using HPLC by external standard method.

[3] = Hygroscopicity experiment (DVS); conditions: for hygroscopicity (in words): DVS; for Hygroscopicity (25° C./80% RH): DVS vapour sorption weight gain at 80% RH
Description: The hygroscopicity of crystal forms I, II and III of the free base of Example 40 under different relative humidity conditions was investigated, so as to provide a basis for screening of the crystal form and salt of the compound, production and storage.
10 to 15 mg of the free base of Example 40 was placed in the sample chamber of DVS. DVS was carried out, and the vapour sorption weight gain percentage of the compound at 80% RH was recorded at the same time.

Row | Compound | solubility in n-heptane (in words) [1] | Solubility ([2]; FaSSGF) [µg/mL] | Solubility ([2]; FaSSIF) [µg/mL] | Solubility ([2]; FeSSIF) [µg/mL] | Solubility ([2]; Water) [µg/mL] | hygroscopicity (in words) [3] | Hygroscopicity (25° C./80% RH) [3] [%]
1 | C[C@@H]1C[C@H](C(=O)Cn2ccc(C#N)n2)[C@@]2(C)CC[C@H]3[C@@H](CC[C@@H]4C[C@](C)(O)CC[C@@H]43)[C@H]12 [Crystal form II, 1-(2-((3R,5R,8R,9R,10S,13S,14S,15R,17S)-3-Hydroxy-3,13,15-trimethylhexadecahydro-1H-cyclopenta[a]phenanthren-17-yl)-2-oxoethyl)-1H-pyrazole-3-carbonitrile] | almost insoluble | <1 | 3.705 (≈ 8.75 µM) | 18.495 (≈ 43.7 µM) | <1 | no hygroscopicity | 0.03
2 | C[C@@H]1C[C@H](C(=O)Cn2ccc(C#N)n2)[C@@]2(C)CC[C@H]3[C@@H](CC[C@@H]4C[C@](C)(O)CC[C@@H]43)[C@H]12 [Crystal form III, 1-(2-((3R,5R,8R,9R,10S,13S,14S,15R,17S)-3-Hydroxy-3,13,15-trimethylhexadecahydro-1H-cyclopenta[a]phenanthren-17-yl)-2-oxoethyl)-1H-pyrazole-3-carbonitrile] | almost insoluble | <1 | 4.914 (≈ 11.6 µM) | 28.166 (≈ 66.5 µM) | <1 | no hygroscopicity | 0.10
